Laboratory results taken from US12052991B2, “Substituted pyridinyloxybenzenes and salts thereof and use thereof as herbicidal agents” (Bayer Aktiengesellschaft, priority 2018, dated 2024).

What was measured:
Type in all cases: in vivo
[1] = tested on: Amaranthus retroflexus (AMARE); assay: Herbicidal post-emergence action (Table B6); settings: visual rating about 3 weeks after treatment, 100% = plants have died, 0% = like control plants
How it was run: (§1)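 Visual percent activity relative to untreated controls (100% = plants dead, 0% = like controls) was scored about 3 weeks after treatment. Plants had been sprayed at the one-leaf stage with formulated compound at 1280 or 320 g/ha in 600 L/ha water containing 0.5% additive.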

[2] = tested on: Lolium rigidum (LOLRI); assay: Herbicidal pre-emergence action, test C (Table C2); settings: dosage 1280 g/ha; visual scoring after about 3 weeks; 100% = plants have died, 0% = like control plants
How it was run: (§2)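 Seeds are covered with sandy loam, and the formulated compound is applied to the soil surface before emergence at 1280 or 320 g/ha. Spray carries 0.5% additive at 600 L/ha. Damage is rated visually as percent versus untreated pots after roughly 3 weeks.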

[3] = tested on: Lolium rigidum (LOLRI); assay: Herbicidal post-emergence action (Table B2); settings: 1280 g/ha; rated visually after about 3 weeks; 100% = plants have died, 0% = like control plants
Procedure: (§3) Seeds of mono- and dicotyledonous weed plants were placed in plastic pots in sandy loam soil (doubly sown with in each case one species of mono- or dicotyledonous weed plants per pot), covered with soil and cultivated in a greenhouse under controlled growth conditions. 2 to 3 weeks after sowing, the test plants were treated at the one-leaf stage. The compounds of the invention, formulated in the form of wettable powders (WP) or as emulsion concentrates (EC), were applied onto the green parts of the plants as aqueous suspension or emulsion with addition of 0.5% additive at a water application rate of 600 liters per hectare (converted). After the test plants had been kept in the greenhouse under optimum growth conditions for about 3 weeks, the activity of the preparations was rated visually in comparison to untreated controls. For example, 100% activity=the plants have died, 0% activity=like control plants. Tables B1 to B12 below show the effects of selected compounds of the general formula (I) according to Table 1 on various harmful plants and an application rate corresponding to 1280 or 320 g/ha, which were obtained by the experimental procedure mentioned above.

[4] = tested on: Setaria viridis (SETVI); assay: Herbicidal pre-emergence action, test C (Table C4); settings: visual scoring after about 3 weeks, 100% = plants have died, 0% = like control plants
How it was run: as §2

[5] = tested on: Echinochloa crus-galli (ECHCG); assay: Herbicidal pre-emergence action, test C (Table C1); settings: visual scoring after about 3 weeks, 100% = plants have died, 0% = like control plants
How it was run: as §2

[6] = tested on: harmful plants ABUTH, AMARE, ECHCG, LOLRI, MATIN, POAAN, SETVI, STEME, ALOMY, DIGSA, KCHSC and VERPE; assay: Herbicidal pre-emergence action (test C), summary of Tables C1-C12; settings: application rate of 1280 or 320 g of active ingredient per hectare; summary in words
How it was run: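 Pre-emergence pot test in sandy loam: WP or EC formulations were sprayed onto the covering soil with 0.5% additive at 600 L/ha water, at 1280 or 320 g/ha. Plants were kept in the greenhouse, and activity was rated visually about 3 weeks later as % versus untreated controls (100% = dead).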

[7] = tested on: Setaria viridis (SETVI); assay: Herbicidal post-emergence action (Table B4); settings: 1280 g/ha; rated visually after about 3 weeks; 100% = plants have died, 0% = like control plants
Procedure: as §3

[8] = tested on: Poa annua (POAAN); assay: Herbicidal post-emergence action (Table B3); settings: rated visually after about 3 weeks, 100% = plants have died, 0% = like control plants
How it was run: as §1

[9] = tested on: Abutilon theophrasti (ABUTH); assay: Herbicidal post-emergence action (Table B5); settings: rated visually after about 3 weeks, 100% = plants have died, 0% = like control plants
How it was run: as §1

[10] = tested on: Echinochloa crus-galli (ECHCG); assay: Herbicidal post-emergence action (Table B1); settings: rated visually after about 3 weeks, 100% = plants have died, 0% = like control plants
How it was run: as §1

[11] = tested on: Abutilon theophrasti (ABUTH); assay: Herbicidal pre-emergence action, test C (Table C5); settings: visual scoring after about 3 weeks, 100% = plants have died, 0% = like control plants
How it was run: as §2

[12] = tested on: Poa annua (POAAN); assay: Herbicidal pre-emergence action, test C (Table C3); settings: visual scoring after about 3 weeks, 100% = plants have died, 0% = like control plants
How it was run: as §2

[13] = tested on: harmful plants ABUTH, AMARE, ECHCG, LOLRI, MATIN, POAAN, SETVI, STEME, ALOMY, DIGSA, KCHSC and VERPE; assay: Herbicidal post-emergence action, summary of Tables B1-B12; settings: application rate of 1280 or 320 g of active ingredient per hectare; summary in words
How it was run: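 Greenhouse weeds in sandy loam treated post-emergence at the one-leaf stage, 2–3 weeks after sowing, with WP or EC formulations sprayed with 0.5% additive at 600 L/ha water, 1280 or 320 g/ha. Damage rated visually after about 3 weeks versus untreated controls (0% = like control, 100% = dead).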

[14] = tested on: Stellaria media (STEME); assay: Herbicidal pre-emergence action, test C (Table C8); settings: visual scoring after about 3 weeks, 100% = plants have died, 0% = like control plants
How it was run: as §2

[15] = tested on: Amaranthus retroflexus (AMARE); assay: Herbicidal pre-emergence action, test C (Table C6); settings: visual scoring after about 3 weeks, 100% = plants have died, 0% = like control plants
How it was run: as §2

[16] = tested on: Matricaria inodora (MATIN); assay: Herbicidal pre-emergence action, test C (Table C7); settings: visual scoring after about 3 weeks, 100% = plants have died, 0% = like control plants
How it was run: as §2

[17] = tested on: Stellaria media (STEME); assay: Herbicidal post-emergence action (Table B8); settings: visual rating about 3 weeks after treatment, 100% = plants have died, 0% = like control plants
How it was run: as §1

[18] = tested on: Alopecurus myosuroides (ALOMY); assay: Herbicidal post-emergence action (Table B9); settings: rated visually after about 3 weeks, 100% = plants have died, 0% = like control plants
How it was run: as §1

[19] = tested on: Veronica persica (VERPE); assay: Herbicidal pre-emergence action, test C (Table C12); settings: visual scoring vs untreated controls
How it was run: as §2

[20] = tested on: Veronica persica (VERPE); assay: Herbicidal post-emergence action (Table B12); settings: visual rating about 3 weeks after treatment, 100% = plants have died, 0% = like control plants
How it was run: as §1

[21] = tested on: Alopecurus myosuroides (ALOMY); assay: Herbicidal pre-emergence action, test C (Table C9); settings: visual scoring after about 3 weeks, 100% = plants have died, 0% = like control plants
How it was run: as §2

[22] = tested on: Digitaria sanguinalis (DIGSA); assay: Herbicidal pre-emergence action, test C (Table C10); settings: visual scoring after about 3 weeks, 100% = plants have died, 0% = like control plants
How it was run: as §2

[23] = tested on: Bassia scoparia (KCHSC); assay: Herbicidal post-emergence action (Table B11); settings: visual rating about 3 weeks after treatment, 100% = plants have died, 0% = like control plants
How it was run: as §1

[24] = tested on: Digitaria sanguinalis (DIGSA); assay: Herbicidal post-emergence action (Table B10); settings: visual rating about 3 weeks after treatment, 100% = plants have died, 0% = like control plants
How it was run: as §1

[25] = tested on: Bassia scoparia (KCHSC); assay: Herbicidal pre-emergence action, test C (Table C11); settings: visual scoring vs untreated controls
How it was run: as §2

Structure (SMILES): Fc1cccnc1Oc1cccc(F)c1-c1cc(C(F)F)no1 [Example 1-23]
- Post-emergence action against Amaranthus retroflexus (AMARE) ([1]; dosage 320 g/ha): 100%
- Post-emergence action against Amaranthus retroflexus (AMARE) ([1]; dosage 1280 g/ha): 100%
- Pre-emergence action against Lolium rigidum (LOLRI) [2]: 100%
- Post-emergence action against Lolium rigidum (LOLRI) [3]: 100%
- Pre-emergence action against Setaria viridis (SETVI) ([4]; dosage 320 g/ha): 100%
- Pre-emergence action against Setaria viridis (SETVI) ([4]; dosage 1280 g/ha): 100%
- Pre-emergence action against Echinochloa crus-galli (ECHCG) ([5]; dosage 320 g/ha): 100%
- Pre-emergence action against Echinochloa crus-galli (ECHCG) ([5]; dosage 1280 g/ha): 100%
- herbicidal activity against the harmful plants of Tables C1-C12 in pre-emergence treatment [6]: very good herbicidal activity
- Post-emergence action against Setaria viridis (SETVI) [7]: 90%
- Post-emergence action against Poa annua (POAAN) ([8]; 320 g/ha): 100%
- Post-emergence action against Poa annua (POAAN) ([8]; 1280 g/ha): 100%
- Post-emergence action against Abutilon theophrasti (ABUTH) ([9]; 320 g/ha): 100%
- Post-emergence action against Abutilon theophrasti (ABUTH) ([9]; 1280 g/ha): 100%
- Post-emergence action against Echinochloa crus-galli (ECHCG) ([10]; 320 g/ha): 100%
- Post-emergence action against Echinochloa crus-galli (ECHCG) ([10]; 1280 g/ha): 100%
- Pre-emergence action against Abutilon theophrasti (ABUTH) ([11]; dosage 320 g/ha): 100%
- Pre-emergence action against Abutilon theophrasti (ABUTH) ([11]; dosage 1280 g/ha): 100%
- Pre-emergence action against Poa annua (POAAN) ([12]; dosage 320 g/ha): 90%
- Pre-emergence action against Poa annua (POAAN) ([12]; dosage 1280 g/ha): 100%
- herbicidal activity against the harmful plants of Tables B1-B12 in post-emergence treatment [13]: very good herbicidal activity
- Pre-emergence action against Stellaria media (STEME) ([14]; dosage 320 g/ha): 100%
- Pre-emergence action against Stellaria media (STEME) ([14]; dosage 1280 g/ha): 100%
- Pre-emergence action against Amaranthus retroflexus (AMARE) ([15]; dosage 1280 g/ha): 100%
- Pre-emergence action against Matricaria inodora (MATIN) ([16]; dosage 320 g/ha): 90%
- Pre-emergence action against Matricaria inodora (MATIN) ([16]; dosage 1280 g/ha): 100%
- Post-emergence action against Stellaria media (STEME) ([17]; dosage 320 g/ha): 100%
- Post-emergence action against Stellaria media (STEME) ([17]; dosage 1280 g/ha): 100%

Structure (SMILES): Fc1cc(Cl)cnc1Oc1ccccc1-c1cncc(C(F)(F)F)c1 [Example 1-72]
- Post-emergence action against Amaranthus retroflexus (AMARE) ([1]; dosage 320 g/ha): 100%
- Post-emergence action against Amaranthus retroflexus (AMARE) ([1]; dosage 1280 g/ha): 100%
- Pre-emergence action against Lolium rigidum (LOLRI) [2]: 100%
- Post-emergence action against Lolium rigidum (LOLRI) [3]: 100%
- Pre-emergence action against Setaria viridis (SETVI) ([4]; dosage 320 g/ha): 100%
- Pre-emergence action against Setaria viridis (SETVI) ([4]; dosage 1280 g/ha): 100%
- Post-emergence action against Alopecurus myosuroides (ALOMY) ([18]; 320 g/ha): 100%
- Post-emergence action against Alopecurus myosuroides (ALOMY) ([18]; 1280 g/ha): 100%
- Pre-emergence action against Echinochloa crus-galli (ECHCG) ([5]; dosage 320 g/ha): 100%
- Pre-emergence action against Echinochloa crus-galli (ECHCG) ([5]; dosage 1280 g/ha): 100%
- Pre-emergence action against Veronica persica (VERPE) ([19]; dosage 320 g/ha): 100%
- Pre-emergence action against Veronica persica (VERPE) ([19]; dosage 1280 g/ha): 100%
- Post-emergence action against Veronica persica (VERPE) ([20]; dosage 320 g/ha): 100%
- Post-emergence action against Veronica persica (VERPE) ([20]; dosage 1280 g/ha): 100%
- herbicidal activity against the harmful plants of Tables C1-C12 in pre-emergence treatment [6]: very good herbicidal activity
- Post-emergence action against Setaria viridis (SETVI) [7]: 90%
- Post-emergence action against Abutilon theophrasti (ABUTH) ([9]; 320 g/ha): 100%
- Post-emergence action against Abutilon theophrasti (ABUTH) ([9]; 1280 g/ha): 100%
- Pre-emergence action against Alopecurus myosuroides (ALOMY) ([21]; dosage 320 g/ha): 100%
- Pre-emergence action against Alopecurus myosuroides (ALOMY) ([21]; dosage 1280 g/ha): 100%
- Pre-emergence action against Digitaria sanguinalis (DIGSA) ([22]; dosage 320 g/ha): 100%
- Pre-emergence action against Digitaria sanguinalis (DIGSA) ([22]; dosage 1280 g/ha): 100%
- Post-emergence action against Bassia scoparia (KCHSC) ([23]; dosage 320 g/ha): 100%
- Post-emergence action against Bassia scoparia (KCHSC) ([23]; dosage 1280 g/ha): 100%
- Pre-emergence action against Abutilon theophrasti (ABUTH) ([11]; dosage 320 g/ha): 100%
- Pre-emergence action against Abutilon theophrasti (ABUTH) ([11]; dosage 1280 g/ha): 100%
- Post-emergence action against Digitaria sanguinalis (DIGSA) ([24]; dosage 320 g/ha): 90%
- Post-emergence action against Digitaria sanguinalis (DIGSA) ([24]; dosage 1280 g/ha): 100%
- Pre-emergence action against Poa annua (POAAN) ([12]; dosage 320 g/ha): 100%
- Pre-emergence action against Poa annua (POAAN) ([12]; dosage 1280 g/ha): 100%
- Pre-emergence action against Bassia scoparia (KCHSC) ([25]; dosage 320 g/ha): 100%
- Pre-emergence action against Bassia scoparia (KCHSC) ([25]; dosage 1280 g/ha): 100%
- herbicidal activity against the harmful plants of Tables B1-B12 in post-emergence treatment [13]: very good herbicidal activity
- Pre-emergence action against Stellaria media (STEME) ([14]; dosage 320 g/ha): 90%
- Pre-emergence action against Stellaria media (STEME) ([14]; dosage 1280 g/ha): 100%
- Pre-emergence action against Amaranthus retroflexus (AMARE) ([15]; dosage 320 g/ha): 100%
- Pre-emergence action against Amaranthus retroflexus (AMARE) ([15]; dosage 1280 g/ha): 100%
- Pre-emergence action against Matricaria inodora (MATIN) ([16]; dosage 320 g/ha): 90%
- Pre-emergence action against Matricaria inodora (MATIN) ([16]; dosage 1280 g/ha): 100%
- Post-emergence action against Stellaria media (STEME) ([17]; dosage 320 g/ha): 100%
- Post-emergence action against Stellaria media (STEME) ([17]; dosage 1280 g/ha): 100%
